Reference: ChEMBL document CHEMBL1142030, “Identification of small molecule inhibitors of the hepatitis C virus RNA-dependent RNA polymerase from a pyrrolidine combinatorial mixture” (Bioorg Med Chem Lett, 2005)
Values joined by “and” are separate entries in the source; they are usually repeats but may differ in a detail not shown here. Identical values can stand only once.

Molecular target: RNA-directed RNA polymerase (Hepacivirus hominis, UniProt O39930)
Assay: Inhibitory concentration against Hepatitis C virus RNA dependent RNA polymerase Nonstructural protein 5B

Sequence of RNA-directed RNA polymerase (O39930 whole entry): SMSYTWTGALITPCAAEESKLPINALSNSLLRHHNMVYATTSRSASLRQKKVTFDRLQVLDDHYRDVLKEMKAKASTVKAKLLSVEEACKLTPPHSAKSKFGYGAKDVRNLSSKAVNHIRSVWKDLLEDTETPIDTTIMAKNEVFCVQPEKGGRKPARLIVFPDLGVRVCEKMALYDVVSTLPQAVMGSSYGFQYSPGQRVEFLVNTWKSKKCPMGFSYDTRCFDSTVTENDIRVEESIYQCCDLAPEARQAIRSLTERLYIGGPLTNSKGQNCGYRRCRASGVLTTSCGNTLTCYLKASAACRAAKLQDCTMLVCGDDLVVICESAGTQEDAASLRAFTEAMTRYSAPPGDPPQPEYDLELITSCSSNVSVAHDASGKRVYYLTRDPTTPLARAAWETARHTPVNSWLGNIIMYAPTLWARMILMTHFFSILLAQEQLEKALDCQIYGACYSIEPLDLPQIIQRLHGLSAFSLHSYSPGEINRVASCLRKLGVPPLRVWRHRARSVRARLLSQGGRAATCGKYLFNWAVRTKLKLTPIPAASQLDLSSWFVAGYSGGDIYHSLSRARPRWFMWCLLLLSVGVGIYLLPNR

Compound | IC50
CC(C)C[C@@]1(C(=O)O)C[C@H](C(=O)O)[C@H](c2cccs2)N1C(=O)c1ccccc1C(F)(F)F | > 20000 nM
CC(C)C[C@@]1(C(=O)O)C[C@H](C(=O)O)[C@H](c2cccs2)N1C(=O)c1ccc([N+](=O)[O-])cc1 | 3200 nM
CC(C)C[C@@]1(C(=O)O)C[C@H](C(=O)O)[C@H](c2cccs2)N1C(=O)c1ccc(Cl)c(Cl)c1 | 600 nM
CC(C)C[C@@]1(C(=O)O)C[C@H](C(=O)O)[C@H](c2ccco2)N1C(=O)c1ccc(C(F)(F)F)cc1 | 800 nM
CC(C)C[C@@]1(C(=O)O)C[C@H](C(=O)O)[C@H](c2cccs2)N1C(=O)c1cccc(C(F)(F)F)c1 | 600 nM
CC(C)C[C@@]1(C(=O)O)C[C@H](C(=O)O)[C@H](c2ccccc2)N1C(=O)c1ccc(C(F)(F)F)cc1 | 700 nM
O=C(O)CC[C@@]1(C(=O)O)C[C@H](C(=O)O)[C@H](c2ccccc2)N1C(=O)c1ccc(C(F)(F)F)cc1 | > 20000 nM
CC(C)C[C@@]1(C(=O)O)C[C@H](C(=O)O)[C@H](c2cccs2)N1C(=O)c1cccc2ccccc12 | 700 nM
CC(C)C[C@@]1(C(=O)O)C[C@H](C(=O)O)[C@H](c2cccs2)N1C(=O)c1ccc(C(F)(F)F)cc1 | 300 nM and 190 nM
CC(C)C[C@@]1(C(=O)O)C[C@H](C(=O)O)[C@H](c2cccs2)N1C(=O)c1ccncc1 | > 20000 nM
Cc1ccc([C@H]2[C@@H](C(=O)O)C[C@@](CC(C)C)(C(=O)O)N2C(=O)c2ccc(C(F)(F)F)cc2)cc1 | 1000 nM
CCCCCCC(=O)N1[C@@H](c2cccs2)[C@@H](C(=O)O)C[C@@]1(CC(C)C)C(=O)O | > 20000 nM
CC(C)C[C@@]1(C(=O)O)C[C@H](C(=O)O)[C@H](c2nccs2)N1C(=O)c1ccc(C(F)(F)F)cc1 | 400 nM
CC(C)C[C@@]1(C(=O)O)C[C@H](C(=O)O)[C@H](C(C)C)N1C(=O)c1ccc(C(F)(F)F)cc1 | 500 nM
CC(C)C[C@@]1(C(=O)O)C[C@H](C(=O)O)[C@H](c2ccccn2)N1C(=O)c1ccc(C(F)(F)F)cc1 | 700 nM
O=C(O)[C@H]1C[C@@](Cc2ccccc2)(C(=O)O)N(C(=O)c2ccc(C(F)(F)F)cc2)[C@H]1c1ccccc1 | 1900 nM
COc1ccccc1[C@H]1[C@@H](C(=O)O)C[C@@](CC(C)C)(C(=O)O)N1C(=O)c1ccc(C(F)(F)F)cc1 | 5100 nM
CC(C)C[C@@]1(C(=O)O)C[C@H](C(=O)O)[C@H](c2cccs2)N1C(=O)c1ccccc1 | 11400 nM
CC(C)C[C@@]1(C(=O)O)C[C@H](C(=O)O)[C@H](c2cccs2)N1C(=O)c1ccc(Cl)cc1 | 1700 nM
C[C@@]1(C(=O)O)C[C@H](C(=O)O)[C@H](c2ccccc2)N1C(=O)c1ccc(C(F)(F)F)cc1 | > 20000 nM
NCCC[C@@]1(C(=O)O)C[C@H](C(=O)O)[C@H](c2ccccc2)N1C(=O)c1ccc(C(F)(F)F)cc1 | > 20000 nM
O=C(O)[C@H]1C[C@@](Cc2ccc(O)cc2)(C(=O)O)N(C(=O)c2ccc(C(F)(F)F)cc2)[C@H]1c1ccccc1 | > 20000 nM
CC(C)C[C@@]1(C(=O)O)C[C@H](C(=O)O)[C@H](c2ccc(Cl)cc2)N1C(=O)c1ccc(C(F)(F)F)cc1 | 900 nM
CCCC[C@@]1(C(=O)O)C[C@H](C(=O)O)[C@H](c2ccccc2)N1C(=O)c1ccc(C(F)(F)F)cc1 | 3300 nM
O=C(O)[C@H]1C[C@@H](C(=O)O)N(C(=O)c2ccc(Cl)c(Cl)c2)C1 (racemic) | 12000 nM
O=C(O)[C@H]1C[C@@H](C(=O)O)N(C(=O)c2ccc(C(F)(F)F)cc2)C1 (racemic) | 7600 nM
CC(C)C[C@@]1(C(=O)O)C[C@H](C(=O)O)C(c2cccs2)N1C(=O)c1ccc(C(F)(F)F)cc1 (single isomer, unassigned) | 18000 nM
